Among the data in US11077100B2, “Tetrahydroquinoline derivatives as P2X7 receptor antagonists” (RaQualia Pharma Inc., priority 2017, dated 2021) are IC50 values, retold here.

Experiment [1] deals with rat P2X7 (Rattus norvegicus (Rat), UniProt Q64663). Nature of the experiment: Rat P2X7 functional assay (Ca2+ influx, Fluo-4, FDSS). It is filed as cell-based. The following applies: HEK293 cells stably expressing rat P2X7; BzATP final 10 microM; 7-point dose-response; read-out: Antagonistic activities with respect to the rat P2X7 receptor (IC50). The protocol: Rat P2X7 Functional Assay
The functional activity of compounds was determined by measuring changes in intracellular calcium concentration using a Ca^2+-sensitive fluorescent dye, Fluo-4 (Molecular Probes). The changes in fluorescent signal were monitored by the cell imaging technology by Hamamatsu Photonics's Functional Drug Screening System (FDSS). Increases in intracellular Ca^2+ concentration were readily detected upon activation with BzATP.
HEK293 cells stably expressing rat P2X7 (GenBank accession number NM_019256) were grown in Corning CellBIND cell culture flasks, in a 5% CO2 humidified incubator to about 80% confluence. Media composition consisted of Dulbecco's Modified Eagle Medium (high glucose), 10% fetal bovine serum ([…]), 100 units/[…] Penicillin, 100 microg/mL Streptomycin and 250 microg/mL Geneticine.
1. […] Plate-out HEK293-rat P2X7 cells (40 microL medium containing 5,000 cells per well) into poly-D-lysine coated 384-well plates (BD Falcon) at 24 h prior to assay.
2. Incubate at 37° C. in 5% CO2.
3. Incubate the plate at 37° C. in 5% CO2 for 1 h.
5. Test compounds were prepared at 100× the test concentration in DMSO by serial dilution with Biomek-FX liquid handling instrument. 33× diluted compound solutions in assay buffer were prepared in intermediate compound plate with Biomek-NX liquid handling instrument. A further 3× dilution occurred in below steps 6 and 7.
6. Add 20 microL of 33× diluted compound solutions into each well and leave the plate for 10 min under the dark at room temperature.
7. Measure activity by FDSS as follows: • Set the assay plate on the stacker of FDSS. • Start the detection of fluorescence intensity at 540 nm by 480 nm exicitation. • After 30 seconds, add 20 microL of assay buffer containing 30 microM BzATP (final 10 microM).
IC50 values for compounds of the present invention were determined from 7-point dose-response studies. Curves were generated using the average of duplicate wells for each data point. Finally, the IC50 values are calculated with the best-fit dose curve determined by XLfit (ID Business Solutions Ltd.).

The target of experiment [2] is human P2X7 (Homo sapiens (Human), UniProt Q99572). Nature of the experiment: Human P2X7 functional assay (Ca2+ influx, Fluo-4, FDSS). It is filed as cell-based. The following applies: antagonistic activity with respect to the human P2X7 receptor; BzATP final concentration 80 microM. The method in brief:
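Ca2+ influx was triggered with BzATP (80 μM final) after a 10-min room-temperature compound preincubation and monitored with Fluo-4 (ex 480/em 540 nm) on FDSS. The cells were HEK293 stably carrying FLAG-tagged human P2X7. Duplicate-averaged 7-point dose-responses gave IC50s.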

human P2X7, sequence (Q99572 whole entry): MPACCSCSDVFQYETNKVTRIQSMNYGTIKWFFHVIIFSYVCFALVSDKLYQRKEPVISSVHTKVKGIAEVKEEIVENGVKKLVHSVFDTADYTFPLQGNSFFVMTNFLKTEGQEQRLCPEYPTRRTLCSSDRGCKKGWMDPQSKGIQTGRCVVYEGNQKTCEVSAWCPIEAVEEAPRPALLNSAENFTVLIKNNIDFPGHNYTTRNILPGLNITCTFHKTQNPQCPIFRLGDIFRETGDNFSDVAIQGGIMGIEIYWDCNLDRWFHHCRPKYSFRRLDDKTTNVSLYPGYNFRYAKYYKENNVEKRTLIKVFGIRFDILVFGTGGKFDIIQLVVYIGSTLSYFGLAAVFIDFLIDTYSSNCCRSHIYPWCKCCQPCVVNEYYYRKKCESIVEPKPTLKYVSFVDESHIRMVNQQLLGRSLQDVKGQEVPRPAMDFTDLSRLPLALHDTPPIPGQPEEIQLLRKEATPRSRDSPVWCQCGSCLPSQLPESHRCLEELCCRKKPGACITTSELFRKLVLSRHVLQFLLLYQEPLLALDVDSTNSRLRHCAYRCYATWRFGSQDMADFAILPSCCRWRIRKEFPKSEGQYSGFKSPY
rat P2X7, sequence (Q64663 whole entry): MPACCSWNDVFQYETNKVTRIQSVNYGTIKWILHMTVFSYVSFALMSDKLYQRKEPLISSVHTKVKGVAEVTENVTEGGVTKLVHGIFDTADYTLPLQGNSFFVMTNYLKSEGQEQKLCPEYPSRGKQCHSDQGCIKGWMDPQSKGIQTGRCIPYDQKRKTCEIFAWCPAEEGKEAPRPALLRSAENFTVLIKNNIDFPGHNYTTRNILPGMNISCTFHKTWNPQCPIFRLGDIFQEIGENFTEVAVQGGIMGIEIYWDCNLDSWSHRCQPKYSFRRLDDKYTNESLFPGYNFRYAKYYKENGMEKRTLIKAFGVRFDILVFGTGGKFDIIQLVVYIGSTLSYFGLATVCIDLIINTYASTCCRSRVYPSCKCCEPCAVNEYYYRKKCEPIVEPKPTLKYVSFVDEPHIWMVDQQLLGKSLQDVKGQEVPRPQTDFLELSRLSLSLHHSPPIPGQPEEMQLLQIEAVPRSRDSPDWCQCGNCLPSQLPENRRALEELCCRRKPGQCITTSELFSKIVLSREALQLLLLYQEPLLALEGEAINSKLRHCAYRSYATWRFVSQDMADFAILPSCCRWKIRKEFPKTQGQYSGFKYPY

Turning to `Cc1cc(Cl)cc(Cl)c1CNC(=O)C1CC(O)c2ncccc21` (stereo not drawn) [Example 26, N-(2,4-dichloro-6-methyl-benzyl)-7-hydroxy-6,7-dihydro-5H-cyclopenta[b] pyridine-5-carboxamide], the values for the IC50 in experiment [1] and in experiment [2] were less than 1000 nM and less than 50 nM, respectively.

`Cc1cc(Cl)cc(Cl)c1CNC(=O)C1(F)CCC(O)c2ncccc21` (stereo not drawn) [Example 18, N-(2,4-dichloro-6-methyl-benzyl)-5-fluoro-8-hydroxy-5,6,7,8-tetrahydroquinoline-5-carboxamide]: the values for the IC50 in experiment [1] and in experiment [2] were less than 1000 nM and less than 50 nM, respectively.

With `O=C(NCc1ccc(F)cc1Cl)[C@@H]1CC[C@@H](O)c2ncccc21` [Example 89, (5R,8R)-N-(2-chloro-4-fluorobenzyl)-8-hydroxy-5,6,7,8-tetrahydroquinoline-5-carboxamide], the IC50 – broadly, the point on the concentration scale where inhibition reaches its midpoint – was less than 1000 nM in experiment [1] and 101 to 300 nM in experiment [2].

Turning to `O=C(NCc1ccc(Br)cc1Cl)[C@@]1(F)CC[C@@H](O)c2ncccc21` [Example 153, (5R,8R)-N-(4-bromo-2-chlorobenzyl)-5-fluoro-8-hydroxy-5,6,7,8-tetrahydroquinoline-5-carboxamide], the IC50 is less than 1000 nM in experiment [1] and less than 50 nM in experiment [2].

Take `COCc1cc(Cl)cc(Cl)c1CNC(=O)C1CCC(O)c2ncccc21` (stereo not drawn) [Example 10, N-(2,4-dichloro-6-(methoxy-methyl)benzyl)-8-hydroxy-5,6,7,8-tetrahydro-quinoline-5-carboxamide]: the IC50 is less than 1000 nM in experiment [1] and less than 50 nM in experiment [2].

As for `CC(CNC(=O)[C@]1(F)CC[C@H](O)c2ncccc21)c1ccc(Cl)cc1` (stereo partly drawn) [Example 234, (5S,8S)-N-(2-(4-chlorophenyl)propyl)-5-fluoro-8-hydroxy-5,6,7,8-tetrahydroquinoline-5-carboxamide], the IC50 in experiment [1] is less than 1000 nM; in experiment [2], 301 to 1000 nM.

Consider `CNCC1(O)CCC(C(=O)NCc2c(C)cc(Cl)cc2Cl)c2cccnc21` (stereo not drawn) [Example 44, N-(2,4-dichloro-6-methylbenzyl)-8-hydroxy-8-((methyl-amino)methyl)-5,6,7,8-tetrahydro-quinoline-5-carboxamide], for which the IC50 in experiment [1] was less than 1000 nM; in experiment [2] it was less than 50 nM.

As to `O=C1COC[C@@]2(CC[C@@](F)(C(=O)NCc3ccc(Cl)cc3Cl)c3cccnc32)N1` (relative stereo) [Example 62, (3S*,5′S*)-N-(2,4-dichlorobenzyl)-5′-fluoro-5-oxo-6′,7′-dihydro-5′H-spiro[morpholine-3,8′-quinoline]-5′-carboxamide], the figures for the IC50 in experiment [1] and in experiment [2] were less than 1000 nM and 101 to 300 nM, respectively.

For the compound `O=C(NCc1cccc(C(F)(F)F)c1Cl)C1(F)CCC(O)(CO)c2ncccc21` (stereo not drawn) [Example 35, N-(2-chloro-3-(trifluoromethyl)benzyl)-5-fluoro-8-hydroxy-8-(hydroxymethyl)-5,6,7,8-tetrahydroquinoline-5-carboxamide], the IC50 was less than 1000 nM in experiment [1] and less than 50 nM in experiment [2].

For `CN(CCO)C[C@]1(O)CC[C@@](F)(C(=O)NCc2ccc(F)cc2Cl)c2cccnc21` (relative stereo) [Example 57, (5S*,8R*)-N-(2-chloro-4-fluorobenzyl)-5-fluoro-8-hydroxy-8-(((2-hydroxyethyl)(meth-yl)amino)methyl)-5,6,7,8-tetrahydroquinoline-5-carboxamide], the IC50 in experiment [1] is less than 1000 nM; in experiment [2], less than 50 nM.

In the case of `O=C(NCc1cccc(Cl)c1Cl)C1(F)CCC(O)c2ncccc21` (stereo not drawn) [Example 21, N-(2,3-dichlorobenzyl)-5-fluoro-8-hydroxy-5,6,7,8-tetrahydroquinoline-5-carboxamide], the IC50 in experiment [1] is less than 1000 nM; in experiment [2], less than 50 nM.

As to `C[C@@]1(O)CC[C@@](F)(C(=O)NCc2ccc(Cl)cc2Cl)c2cccnc21` [Example 257, (5S,8R)-N-(2,4-dichlorobenzyl)-5-fluoro-8-hydroxy-8-methyl-5,6,7,8-tetrahydroquinoline-5-carboxamide], the results for the IC50 in experiment [1] and in experiment [2] were less than 1000 nM and 101 to 300 nM, respectively.

Take `O=C(NCc1ccc(Cl)cc1Cl)[C@]1(F)CC[C@@](O)(CF)c2ncccc21` [Example 285, (5S,8S)-N-(2,4-dichlorobenzyl)-5-fluoro-8-(fluoromethyl)-8-hydroxy-5,6,7,8-tetrahydroquinoline-5-carboxamide]: the IC50 in experiment [1] is less than 1000 nM; in experiment [2], less than 50 nM.

Take `O=C(NCc1ccc(F)cc1Cl)[C@@H]1CC[C@H](O)c2ncccc21` [Example 68, (5R,8S)-N-(2-chloro-4-fluorobenzyl)-8-hydroxy-5,6,7,8-tetrahydroquinoline-5-carboxamide]: the IC50 in experiment [1] was less than 1000 nM; in experiment [2], less than 50 nM.

Turning to `O=C(NCc1ccc(Br)cc1Cl)[C@]1(F)CC[C@@H](O)c2ncccc21` [Example 118, (5S,8R)-N-(4-bromo-2-chlorobenzyl)-5-fluoro-8-hydroxy-5,6,7,8-tetrahydroquinoline-5-carboxamide], the values for the IC50 in experiment [1] and in experiment [2] were less than 1000 nM and less than 50 nM, respectively.

On to `O=C(NCc1cccc(C(F)(F)F)c1Cl)[C@@]1(F)CC[C@@H](O)c2ncccc21` [Example 128, (5R,8R)-N-(2-chloro-3-(trifluoromethyl)benzyl)-5-fluoro-8-hydroxy-5,6,7,8-tetrahydroquinoline-5-carboxamide], for which the values for the IC50 in experiment [1] and in experiment [2] were less than 1000 nM and less than 50 nM, respectively.

Consider `O=C(NCc1ccc(Cl)cc1Cl)[C@@]1(F)CC[C@](O)(CN2CC(O)C2)c2ncccc21` [Example 279, (5R,8S)-N-(2,4-dichlorobenzyl)-5-fluoro-8-hydroxy-8-((3-hydroxyazetidin-1-yl)methyl)-5,6,7,8-tetrahydroquinoline-5-carboxamide], for which the IC50 is less than 1000 nM in experiment [1] and less than 50 nM in experiment [2].

On to `O=C(NCc1ccccc1C(F)(F)F)[C@]1(F)CC[C@H](O)c2ncccc21` [Example 199, (5S,8S)-5-fluoro-8-hydroxy-N-(2-(trifluoromethyl)benzyl)-5,6,7,8-tetrahydroquinoline-5-carboxamide], for which the values for the IC50 in experiment [1] and in experiment [2] were less than 1000 nM and 50 to 100 nM, respectively.

On to `O=C(NCc1c(Cl)cc(Cl)cc1C(F)F)[C@]1(F)CC[C@@H](O)c2ncccc21` [Example 115], for which the IC50 is less than 1000 nM in experiment [1] and less than 50 nM in experiment [2].

Take `O=C(NCc1cccc(Cl)c1F)[C@]1(F)CC[C@H](O)c2ncccc21` [Example 190, (5S,8S)-N-(3-chloro-2-fluorobenzyl)-5-fluoro-8-hydroxy-5,6,7,8-tetrahydroquinoline-5-carboxamide]: the IC50 in experiment [1] was less than 1000 nM; in experiment [2], less than 50 nM.

Regarding `O=C(NCc1c(F)cc(Cl)cc1F)[C@]1(F)CC[C@H](O)c2ncccc21` [Example 184, (5S,8S)-N-(4-chloro-2,6-difluorobenzyl)-5-fluoro-8-hydroxy-5,6,7,8-tetrahydroquinoline-5-carboxamide], the IC50 in experiment [1] was less than 1000 nM; in experiment [2] it was less than 50 nM.

Turning to `O=C(NCC1(N2CCOCC2)CCCCC1)[C@]1(F)CC[C@H](O)c2ncccc21` [Example 192, (5S,8S)-5-fluoro-8-hydroxy-N-((1-morpholinocyclohexyl)methyl)-5,6,7,8-tetrahydroquinoline-5-carboxamide], the IC50 in experiment [1] is less than 1000 nM; in experiment [2] it was less than 50 nM.

Regarding `CNCC1(O)CCC(F)(C(=O)NCc2cccc(C(F)(F)F)c2Cl)c2cccnc21` (stereo not drawn) [Example 49, N-(2-chloro-3-(trifluorometh-yl)benzyl)-5-fluoro-8-hydroxy-8-((methylamino)meth-yl)-5,6,7,8-tetrahydroquinoline-5-carboxamide], the IC50 is less than 1000 nM in experiment [1] and less than 50 nM in experiment [2].

Regarding `O=C(NCc1cccc(C(F)(F)F)c1F)[C@]1(F)CC[C@H](O)c2ncccc21` [Example 175, (5S,8S)-5-fluoro-N-(2-fluoro-3-(trifluoromethyl)benzyl)-8-hydroxy-5,6,7,8-tetrahydroquinoline-5-carboxamide], the IC50 in experiment [1] was less than 1000 nM.

For the compound `O=C(NCc1ccc(F)c(F)c1Cl)[C@]1(F)CC[C@H](O)c2ncccc21` [Example 174, (5S,8S)-N-(2-chloro-3,4-difluorobenzyl)-5-fluoro-8-hydroxy-5,6,7,8-tetrahydroquinoline-5-carboxamide], the IC50 in experiment [1] was less than 1000 nM.
